Measurements taken from US20250163064A1, “QUINAZOLINE COMPOUNDS AND USES THEREOF AS INHIBITORS OF MUTANT KRAS PROTEINS” (AMGEN INC., priority 2022, published 2025).
pIC50: −log10 of the molar value. Like-named read-outs stand apart in the source and are kept apart here.

Columns and labels:
[1] = tested on: Phosphorylation of ERK1/2 in AsPC-1 cells; experiment: Phospho-ERK1/2 MSD Assay; format: cell-based; details: for IC50: Homo sapiens, ASPC1, 2 h, read-out: 2 h p-ERK (AsPC-1 cells), IC50 (μM), AsPC-1 cells, 2 h compound treatment; for pIC50: read-out: 2 h p-ERK (AsPC-1 cells), IC50, AsPC-1 cells, 2 h compound treatment
Outline: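 AsPC-1 cells in 10% FBS RPMI 1640 were treated with a compound dose titration for 2 h at 37° C, then lysed in RIPA buffer with protease and phosphatase inhibitors. Phospho-ERK1/2 was measured by MSD whole-cell lysate immunoassay, and IC50 was derived by 4-parameter logistic fit.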

[2] = target: GDP-bound KRAS protein (aa 1-169), G12D and C118A; SOS-mediated nucleotide exchange (Homo sapiens (Human), UniProt P01116, C118A/G12D); experiment: KRAS G12D Coupled Nucleotide Exchange Assay; format: biochemical; details: 2 h compound pre-incubation, GTP, cRAF AlphaScreen
Chain of GDP-bound KRAS protein (aa 1-169), G12D and C118A; SOS-mediated nucleotide exchange (P01116 other isoform, or with tags, fused parts or gaps G12D/C118A): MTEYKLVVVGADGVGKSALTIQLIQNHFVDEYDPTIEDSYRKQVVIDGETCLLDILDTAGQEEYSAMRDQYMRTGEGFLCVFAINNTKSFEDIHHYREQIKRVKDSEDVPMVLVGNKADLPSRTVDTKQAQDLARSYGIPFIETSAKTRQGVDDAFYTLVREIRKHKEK
Outline: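 GDP-loaded KRAS (aa 1-169, G12D/C118A, N-His) preincubated 2 h with titrated compound in pH 7.4 HEPES/MgCl2/Triton buffer. SOS (aa 564-1049) plus GTP then added for 30 min. AlphaScreen readout; IC50 from 4-parameter logistic fit.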

[3] = target: His-tagged KRAS G12D protein (Homo sapiens (Human), UniProt P01116, G12D); experiment: KRAS G12D TR-FRET Assay; format: binding; details: biotinylated KRPep-2d, 10 μM GDP
Chain of His-tagged KRAS G12D protein (P01116-2 other isoform, or with tags, fused parts or gaps G12D): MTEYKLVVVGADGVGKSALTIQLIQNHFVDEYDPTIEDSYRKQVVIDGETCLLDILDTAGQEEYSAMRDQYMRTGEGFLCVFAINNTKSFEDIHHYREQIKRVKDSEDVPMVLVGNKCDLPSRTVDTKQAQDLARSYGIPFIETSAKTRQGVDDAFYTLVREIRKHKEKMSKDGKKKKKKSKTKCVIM
Outline: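 His-KRAS G12D (20 nM working solution) preincubated with compound 30 min at rt in HEPES pH 7.4 buffer with 10 μM GDP, then biotinylated KRPep-2d added for 1 h. Eu-anti-His/streptavidin-d2 TR-FRET 665/615 ratio; IC50 from 4-parameter logistic fit.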

Row | SMILES | IC50 [1] [µM] | pIC50 [2] | pIC50 [3] | pIC50 [1]
1 | C[C@@]1(CO)CCCN(c2nc(OC[C@@]34CCCN3C[C@H](F)C4)nc3c(F)c(-c4ccc(F)c5sc(N)c(C#N)c45)c(Cl)cc23)C1 [Example 43, 2-Amino-4-(6-chloro-8-fluoro-2-(((2R,7aS)-2-fluorotetrahydro-1H-pyrrolizin-7a(5H)-yl)methoxy)-4-((R)-3-(hydroxymethyl)-3-methylpiperidin-1-yl)quinazolin-7-yl)-7-fluorobenzo[b] thiophene-3-carbonitrile] | 1.16 | 7.74 | 7.82 | 
2 | C[C@@]1(CO)CCCN1c1nc(OC[C@@]23CCCN2C[C@H](F)C3)nc2c(F)c(-c3ccc(F)c4sc(N)c(C#N)c34)c(Cl)cc12 [Example 47, 2-Amino-4-(6-chloro-8-fluoro-2-(((2R,7aS)-2-fluorotetrahydro-1H-pyrrolizin-7a(5H)-yl)methoxy)-4-((S)-2-(hydroxymethyl)-2-methylpyrrolidin-1-yl)quinazolin-7-yl)-7-fluorobenzo[6] thiophene-3-carbonitrile] | 1.11 | 8.15 | 7.77 | 
3 | COC[C@@H]1CCCN1c1nc(OC[C@@]23CCCN2C[C@H](F)C3)nc2c(F)c(-c3ccc(F)c4sc(N)c(C#N)c34)c(Cl)cc12 [Example 48, 2-Amino-4-(6-chloro-8-fluoro-2-(((2R,7a.S)-2-fluorotetrahydro-1H-pyrrolizin-7a(5H)-yl)methoxy)-4-((S)-2-(methoxymethyl)pyrrolidin-1-yl)quinazolin-7-yl)-7-fluorobenzo[b] thiophene-3-carbonitrile] | 3.06 | 7.68 | 7.35 | 
4 | N#Cc1c(N)sc2c(F)ccc(-c3c(Cl)cc4c(N5CCC[C@H]5CO)nc(OC[C@@]56CCCN5C[C@H](F)C6)nc4c3F)c12 [Example 49, 2-Amino-4-(6-chloro-8-fluoro-2-(((2R,7aS)-2-fluorotetrahydro-1H-pyrrolizin-7a(5H)-yl)methoxy)-4-((S)-2-(hydroxymethyl)pyrrolidin-1-yl)quinazolin-7-yl)-7-fluorobenzo[b] thiophene-3-carbonitrile] | 0.252 | 8.40 | 8.40 | 
5 | N#CC[C@@H]1CCCN1c1nc(OC[C@@]23CCCN2C[C@H](F)C3)nc2c(F)c(-c3ccc(F)c4sc(N)c(C#N)c34)c(Cl)cc12 [Example 50, 2-Amino-4-(6-chloro-4-((S)-2-(cyanomethyl)pyrrolidin-1-yl)-8-fluoro-2-(((2R,7aS)-2-fluorotetrahydro-1H-pyrrolizin-7a(5H)-yl)methoxy)quinazolin-7-yl)-7-fluorobenzo[b] thiophene-3-carbonitrile] | 0.307 | 8.15 | 8.15 | 
6 | N#Cc1c(N)sc2c(F)ccc(-c3c(Cl)cc4c(N5CCCCOCC5)nc(OC[C@@]56CCCN5C[C@H](F)C6)nc4c3F)c12 [Example 51, 2-Amino-4-(6-chloro-8-fluoro-2-(((2R,7aS)-2-fluorotetrahydro-1H-pyrrolizin-7a(5H)-yl)methoxy)-4-(1,4-oxazocan-4-yl)quinazolin-7-yl)-7-fluorobenzo[b] thiophene-3-carbonitrile] | 0.089 | 8.70 | 8.70 | 
7 | C[C@]1(CO)CCCN1c1nc(OC[C@@]23CCCN2C[C@H](F)C3)nc2c(F)c(-c3ccc(F)c4sc(N)c(C#N)c34)c(Cl)cc12 [Example 52, 2-Amino-4-(6-chloro-8-fluoro-2-(((2R,7aS)-2-fluorotetrahydro-1H-pyrrolizin-7a(5H)-yl)methoxy)-4-((R)-2-(hydroxymethyl)-2-methylpyrrolidin-1-yl)quinazolin-7-yl)-7-fluorobenzo[b] thiophene-3-carbonitrile] | 0.505 | 8.15 | 8.10 | 
8 | N#Cc1c(N)sc2c(F)ccc(-c3c(Cl)cc4c(N5CCC[C@H]5C#N)nc(OC[C@@]56CCCN5C[C@H](F)C6)nc4c3F)c12 [Example 53, (2S)-1-(7-(2-Amino-3-cyano-7-fluorobenzo[b]thiophen-4-yl)-6-chloro-8-fluoro-2-(((2R,7aS)-2-fluorotetrahydro-1H-pyrrolizin-7a(5H)-yl)methoxy)quinazolin-4-yl)pyrrolidine-2-carbonitrile] | 0.119 | 9.00 | 9.00 | 
9 | N#Cc1c(N)sc2c(F)ccc(-c3c(Cl)cc4c(N5CCC[C@@H](C#N)C5)nc(OC[C@@]56CCCN5C[C@H](F)C6)nc4c3F)c12 [Example 54, (3R)-1-(7-(2-Amino-3-cyano-7-fluorobenzo[b]thiophen-4-yl)-6-chloro-8-fluoro-2-(((2R,7aS)-2-fluorotetrahydro-1H-pyrrolizin-7a(5H)-yl)methoxy)quinazolin-4-yl)piperidine-3-carbonitrile] | 1.09 | 7.89 | 7.85 | 
10 | N#Cc1c(N)sc2c(F)ccc(-c3c(Cl)cc4c(N5CCCOCC5)nc(OC[C@@]56CCCN5C[C@H](F)C6)nc4c3F)c12 [Example 55, 2-Amino-4-(6-chloro-8-fluoro-2-(((2R,7aS)-2-fluorotetrahydro-1H-pyrrolizin-7a(5H)-yl)methoxy)-4-(1,4-oxazepan-4-yl)quinazolin-7-yl)-7-fluorobenzo[b]thiophene-3-carbonitrile] | 0.102 | 8.10 | 8.30 | 
11 | N#Cc1c(N)sc2c(F)ccc(-c3c(Cl)cc4c(N5CCCCC(C#N)C5)nc(OC[C@@]56CCCN5C[C@H](F)C6)nc4c3F)c12 (stereo partly drawn) [Example 57, 1-(7-(2-Amino-3-cyano-7-fluorobenzo[b]thiophen-4-yl)-6-chloro-8-fluoro-2-(((2R,7aS)-2-fluorotetrahydro-1H-pyrrolizin-7a(5H)-yl)methoxy)quinazolin-4-yl)azepane-3-carbonitrile] | 0.061 | 8.52 | 8.52 | 
12 | C=Cc1cc2c(N3CCOCC(C)(O)C3)nc(OC[C@@]34CCCN3C[C@H](F)C4)nc2c(F)c1-c1ccc(F)c2sc(N)c(C#N)c12 (stereo partly drawn) [Example 61, 2-Amino-7-fluoro-4-(8-fluoro-2-(((2R,7aS)-2-fluorotetrahydro-1H-pyrrolizin-7a(5H)-yl)methoxy)-4-(6-hydroxy-6-methyl-1,4-oxazepan-4-yl)-6-vinylquinazolin-7-yl)benzo[b]thiophene-3-carbonitrile] | 0.05 | 8.52 | 8.30 | 
13 | CCc1cc2c(N3CCOCC(C)(O)C3)nc(OC[C@@]34CCCN3C[C@H](F)C4)nc2c(F)c1-c1ccc(F)c2sc(N)c(C#N)c12 (stereo partly drawn) [Example 62, 2-Amino-4-(6-ethyl-8-fluoro-2-(((2R,7aS)-2-fluorotetrahydro-1H-pyrrolizin-7a(H)-yl)methoxy)-4-(6-hydroxy-6-methyl-1,4-oxazepan-4-yl)quinazolin-7-yl)-7-fluorobenzo[b]thiophene-3-carbonitrile] |  | 9.00 | 8.52 | 7.60
14 | CC1(O)COCCN(c2nc(OC[C@@]34CCCN3C[C@H](F)C4)nc3c(F)c(-c4ccc(F)c5sc(N)c(C#N)c45)c(O)cc23)C1 (stereo partly drawn) [Example 63, 2-Amino-7-fluoro-4-(8-fluoro-2-(((2R,7aS)-2-fluorotetrahydro-1H-pyrrolizin-7a (H)-yl)methoxy)-6-hydroxy-4-(6-hydroxy-6-methyl-1,4-oxazepan-4-yl)quinazolin-7-yl)benzo[b]thiophene-3-carbonitrile] |  | 8.52 | 8.40 | < 5.00
15 | N#Cc1c(N)sc2c(F)ccc(-c3c(Cl)cc4c(N5CCCC6(CC(O)C6)C5)nc(OC[C@@]56CCCN5C[C@H](F)C6)nc4c3F)c12 (stereo partly drawn) [Example 64, 2-Amino-4-(6-chloro-8-fluoro-2-(((2R,7aS)-2-fluorotetrahydro-1H-pyrrolizin-7a(5H)-yl)methoxy)-4-(2-hydroxy-6-azaspiro[3.5]nonan-6-yl)quinazolin-7-yl)-7-fluorobenzo[b]thiophene-3-carbonitrile] | 1.52 | 7.55 | 7.60 | 
16 | C[C@@H]1[C@H](O)CCN1c1nc(OC[C@@]23CCCN2C[C@H](F)C3)nc2c(F)c(-c3ccc(F)c4sc(N)c(C#N)c34)c(Cl)cc12 [Example 65, 2-Amino-4-(6-chloro-8-fluoro-2-(((2R,7aS)-2-fluorotetrahydro-1H-pyrrolizin-7a(5H)-yl)methoxy)-4-((2R,3R)-3-hydroxy-2-methylpyrrolidin-1-yl)quinazolin-7-yl)-7-fluorobenzo[b] thiophene-3-carbonitrile] | 0.33 | 8.22 | 7.92 | 
17 | C[C@@H]1CCCN1c1nc(OC[C@@]23CCCN2C[C@H](F)C3)nc2c(F)c(-c3ccc(F)c4sc(N)c(C#N)c34)c(Cl)cc12 [Example 66, 2-Amino-4-(6-chloro-8-fluoro-2-(((2R,7aS)-2-fluorotetrahydro-1H-pyrrolizin-7a(5H)-yl)methoxy)-4-((R)-2-methylpyrrolidin-1-yl)quinazolin-7-yl)-7-fluorobenzo[b] thiophene-3-carbonitrile] | 0.586 | 7.80 | 7.62 | 
